This is an account of results in PMC8158265, “Inhibition of catechol-O-methyltransferase by natural pentacyclic triterpenes: structure–activity relationships and kinetic mechanism” (Journal of Enzyme Inhibition and Medicinal Chemistry, 2021).

Usually Vmax stands for the top rate of the reaction or transport when substrate is in excess. Usually Ki stands for the equilibrium dissociation constant of an inhibitor or competing ligand from its target.

For data set [1], the target named is T1, recombinant human S-COMT (Homo sapiens, UniProt P21964).
T1 construct: made in house
T1 sequence (P21964 1-221 isoform P21964-2): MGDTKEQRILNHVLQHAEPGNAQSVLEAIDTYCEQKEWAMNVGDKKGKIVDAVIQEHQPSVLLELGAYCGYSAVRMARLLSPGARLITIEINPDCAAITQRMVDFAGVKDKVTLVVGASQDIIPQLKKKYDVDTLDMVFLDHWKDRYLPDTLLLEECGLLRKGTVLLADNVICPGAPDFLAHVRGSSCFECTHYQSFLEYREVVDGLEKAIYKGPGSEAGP
Put plainly: Inhibition kinetics of human S-COMT catalysed O-methylation of 3-BTD. The conditions noted are these: for Vmax: 200 μM SAM; for Inhibition type: with respect to 3-BTD (catechol site); for α: global fit of mixed inhibition model. Format: biochemical.

The subject of a further data set is LO-2 cells. Put plainly: Cytotoxicity assay (CCK8). The conditions noted are these: for IC50: Homo sapiens; for cell survival: up to 100 μM. The format is cell-based, human. The protocol:
The normal human liver-derived cell line LO-2 were grown in DMEM culture medium supplemented with 10% FBS, penicillin (100 U/mL) and streptomycin ([…]). After culturing to 80% confluence, cells were digested and exactly 100 µL of cell suspension with a cell concentration of 10^4 cells/well was seeded in 96-well plates and incubated in a 5% CO2 humidified atmosphere at 37 °C for 12 h. Then the cells were incubated with 100 μL tested compounds of varying concentrations from 0.25 to 100 μM prepared in FBS-free culture medium for 24 h. Subsequently, CCK-8 was diluted 1:10 with DMEM culture and them was added into the adherent cells and incubated in 37 °C for 2 h. The absorbance at 450 nm was measured by using the multi-mode microplate reader. Cell viability can be calculated by A/A0 × 100% (A and A0 are the absorbance of experimental group and control group, respectively).

The subject of data set [2] is mitochondrial membrane potential of LO-2 cells. Put plainly: Mitochondrial membrane potential assay (JC-10, high-content imaging). The format is cell-based, human. Conditions: 24 h. The protocol:
The cells were cultured as described in the Section 2.3. […] To assess the mitochondria membrane potential, JC-10 (5 μg/mL) was incubated with the cells for 30 min, and Hochest (10 μg/mL) was used to stain nuclei. After removal of culture medium and rinsing three times with PBS, cell imaging and quantitative analysis were performed by high-content imaging analysis (Molecular Devices® ImageXpress Micro 4, the USA).

The target in data set [3] is T1, recombinant human S-COMT. Put plainly: COMT activity inhibition assay (enzymatic activity based fluorescence assay, 3-BTD substrate). The format is biochemical.
[4] abbreviates: apparent Vmax for 3-BTD with 2.5 μM inhibitor.
Setting [5] is: apparent Vmax for 3-BTD with 5.0 μM inhibitor.
Where [6] appears, read: apparent Vmax for 3-BTD with 7.5 μM inhibitor.
[7] abbreviates: L02, LO-2 cells, 24 h, CCK8, read-out: concentration that led to a 50% decrease of cell viability.
The mark [8] stands for this setting: 2.0 μg/mL human S-COMT, 2.0 μM 3-BTD as substrate, 200 μM SAM, mean ± SE, read-out: IC50.
The mark [9] stands for this setting: 2.0 μg/mL human S-COMT, 2.0 μM 3-BTD as substrate, 200 μM SAM, mean ± SE.

Read-outs that look alike come from different tables or passages of the source. Where only a bound is given, the exact number is not on record here.

On to `CC1(C)CC[C@]2(C(=O)O)CC[C@]3(C)C(=CC[C@@H]4[C@@]5(C)CC[C@H](O)C(C)(C)[C@@H]5CC[C@]43C)[C@@H]2C1` [Compound 1, Oleanic acid], for which the maximal velocity (Vmax) on recombinant human S-COMT [1] (setting [4]) was 8.45 ± 0.29 nmol/min/mg; on recombinant human S-COMT [1] (setting [5]), 4.56 ± 0.084 nmol/min/mg; on recombinant human S-COMT [1] (setting [6]), 2.20 ± 0.030 nmol/min/mg. Besides, the Inhibition type entry on recombinant human S-COMT [1] is “Mixed”. In the data set on LO-2 cells (setting [7]), the IC50 was > 100 µM. Further, the cell survival in the data set with LO-2 cells (LO-2 cells, CCK8) was 95%. The “effect on MMP” value in data set [2] (at 50 μM) was “did not display a decrease of MMP”.

`CC1(C)CC[C@]2(C(=O)O)CC[C@]3(C)C(=CC[C@@H]4[C@@]5(C)CC[C@H](O)[C@@](C)(CO)[C@@H]5CC[C@]43C)[C@@H]2C1` [Compound 2, Hederagenin]: the IC50 on recombinant human S-COMT [3] (setting [8]) turned out to be 8.37 ± 0.46 µM.

With `CC1(C)CC[C@]2(C(=O)O)CC[C@]3(C)C(=CC[C@@H]4[C@@]5(C)C[C@@H](O)[C@H](O)C(C)(C)[C@@H]5CC[C@]43C)[C@@H]2C1` [Compound 3, Masline acid], the IC50 at recombinant human S-COMT [3] stood at 10.6 ± 0.96 µM.

Consider `CC1(C)CCC2(C(=O)O)C(O)CC3(C)C(=CCC4C5(C)CC(O)C(O)C(C)(CO)C5CCC43C)C2C1` (stereo not shown) [Compound 4, Polygalacic acid], for which, on recombinant human S-COMT [3] (setting [9]), the IC50 entry is recorded as “N.E”.

With `CC1(C)CC[C@]2(C)CC[C@]3(C)C(=CC[C@@H]4[C@@]5(C)CC[C@@H](O)[C@](C)(C(=O)O)[C@@H]5CC[C@]43C)[C@@H]2C1` [Compound 5, α-Boswellic acid], the IC50 on recombinant human S-COMT [3] (setting [8]) is 29.2 ± 1.65 µM.

For `CC1(C)[C@@H](O)CC[C@]2(C)[C@H]3C(=O)C=C4[C@@H]5C[C@@](C)(C(=O)O)CC[C@]5(C)CC[C@@]4(C)[C@]3(C)CC[C@@H]12` [Compound 6, Glycyrrhetinic acid], at recombinant human S-COMT [3] (setting [8]), the IC50 turned out to be 115 ± 11.6 µM.

With `C[C@H]1[C@H](C)CC[C@]2(C(=O)O)CC[C@]3(C)C(=CC[C@@H]4[C@@]5(C)CC[C@H](O)C(C)(C)[C@@H]5CC[C@]43C)[C@H]12` [Compound 7, Ursolic acid], the IC50 at recombinant human S-COMT [3] (setting [8]) was 15.1 ± 1.35 µM. For the same compound, the “fold lower inhibitory potency than oleanolic acid (1)” value on recombinant human S-COMT [3] (ratio of IC50 values) is ~3 fold.

Regarding `C[C@H]1[C@H](C)CC[C@]2(C(=O)O)CC[C@]3(C)C(=CC[C@@H]4[C@@]5(C)C[C@@H](O)[C@H](O)[C@@](C)(CO)[C@@H]5CC[C@]43C)[C@H]12` [Compound 8, Asiatic acid], the IC50 at recombinant human S-COMT [3] came to 43.1 ± 5.92 µM.

Turning to `C[C@H]1[C@H](C)CC[C@]2(C)CC[C@]3(C)C(=CC[C@@H]4[C@@]5(C)CC[C@@H](O)[C@](C)(C(=O)O)[C@@H]5CC[C@]43C)[C@H]12` [Compound 9, β-Boswellic acid], on recombinant human S-COMT [3] (setting [8]), the IC50 was 14.2 ± 0.87 µM.

`C[C@H]1[C@H](C)CC[C@]2(C)CC[C@]3(C)C(=CC(=O)[C@@H]4[C@@]5(C)CC[C@@H](O)[C@](C)(C(=O)O)[C@@H]5CC[C@]43C)[C@H]12` [Compound 10, 11-Keto-β-Boswellic acid]: the IC50 entry at recombinant human S-COMT [3] (setting [9]) is reported as “N.E”.

On to `C=C(C)[C@@H]1CC[C@]2(C(=O)O)CC[C@]3(C)[C@H](CC[C@@H]4[C@@]5(C)CC[C@H](O)C(C)(C)[C@@H]5CC[C@]43C)[C@@H]12` [Compound 11, Betulinic acid], for which the IC50 at recombinant human S-COMT [3] (setting [8]) was 5.07 ± 0.087 µM; with LO-2 cells (setting [7]) it was > 100 µM. Moreover, the maximal velocity (Vmax) is recorded as 9.97 ± 0.20 nmol/min/mg on recombinant human S-COMT [1] (setting [4]), 8.95 ± 0.22 nmol/min/mg on recombinant human S-COMT [1] (setting [5]) and 6.06 ± 0.24 nmol/min/mg on recombinant human S-COMT [1] (setting [6]). Further, at recombinant human S-COMT [1] (with respect to 3-BTD), the α was found to be 0.39. Besides, at recombinant human S-COMT [1] (global fit, with respect to 3-BTD, saturated SAM, read-out: Ki), the Ki was 5.6 ± 0.33 µM. Further, the Inhibition type result at recombinant human S-COMT [1] is on record as “Mixed”. In the data set on LO-2 cells (LO-2 cells, CCK8), the cell survival is 95%.

Take `C=C(C)[C@@H]1CC[C@]2(C)CC[C@]3(C)[C@H](CC[C@@H]4[C@@]5(C)CC[C@H](O)C(C)(C)[C@@H]5CC[C@]43C)[C@@H]12` [Compound 12, Lupeol]: the IC50 on recombinant human S-COMT [3] (setting [8]) stood at 7.93 ± 0.47 µM.

Regarding `C=C(C)[C@@H]1CC[C@]2(CO)CC[C@]3(C)[C@H](CC[C@@H]4[C@@]5(C)CC[C@H](O)C(C)(C)[C@@H]5CC[C@]43C)[C@@H]12` [Compound 13, Betulin], at recombinant human S-COMT [3], the IC50 is 8.86 ± 0.46 µM.

In the case of `C=C(C)[C@@H]1CC[C@]2(C=O)CC[C@]3(C)[C@H](CC[C@@H]4[C@@]5(C)CC[C@H](O)C(C)(C)[C@@H]5CC[C@]43C)[C@@H]12` [Compound 14, Betulinic aldehyde], the IC50 on recombinant human S-COMT [3] (setting [8]) was 10 ± 0.63 µM.

As to `C=C(C)[C@@H]1CC[C@]2(C(=O)O)CC[C@]3(C)[C@H](CC[C@@H]4[C@@]5(C)CC[C@@H](O)C(C)(C)[C@@H]5CC[C@]43C)[C@@H]12` [Compound 15, Epibetulinic acid], the “reduction in COMT-inhibitory potential compared to betulinic acid (11)” value at recombinant human S-COMT [3] amounted to 50%. Further, the IC50 on recombinant human S-COMT [3] (setting [8]) is 9.38 ± 0.37 µM.

`C=C(C)[C@@H]1CC[C@]2(C(=O)O)CC[C@]3(C)[C@H](CC[C@@H]4[C@@]5(C)CC[C@H](O)[C@@](C)(CO)[C@@H]5CC[C@]43C)[C@@H]12` [Compound 16, 23-Hydroxybetulinic acid]: the IC50 on recombinant human S-COMT [3] (setting [8]) worked out at 31.4 ± 2.42 µM.

Consider `C=C(C)[C@@H]1CC[C@]2(C(=O)O)CC[C@]3(C)[C@H](CC[C@@H]4[C@@]5(C)CCC(=O)C(C)(C)[C@@H]5CC[C@]43C)[C@@H]12` [Compound 17, Betulonic acid], for which, on recombinant human S-COMT [3] (setting [8]), the IC50 was found to be 11.1 ± 0.51 µM.

On to `CC1=C(O)C(=O)C=C2C1=CC=C1[C@@]2(C)CC[C@@]2(C)[C@@H]3C[C@](C)(C(=O)O)CC[C@]3(C)CC[C@]12C` [Compound 18, Celastrol], for which the IC50 was found to be 3.89 ± 0.15 µM on recombinant human S-COMT [3] and 2.4 µM with LO-2 cells (L02, 24 h, read-out: concentration that led to a 50% decrease of cell viability, LO-2 cells, 24 h, CCK8). In addition, the Ki at recombinant human S-COMT [1] is 3.5 ± 0.51 µM. In addition, the Vmax on recombinant human S-COMT [1] (setting [4]) came to 7.91 ± 0.16 nmol/min/mg; on recombinant human S-COMT [1] (setting [5]), 4.39 ± 0.10 nmol/min/mg; on recombinant human S-COMT [1] (setting [6]), 2.54 ± 0.047 nmol/min/mg. Besides, the α on recombinant human S-COMT [1] (with respect to 3-BTD) is listed as 0.20. In addition, the Inhibition type result on recombinant human S-COMT [1] is “Mixed”. Moreover, the “fold more potent cytotoxicity than tolcapone” value in the data set with LO-2 cells (LO-2 cells, CCK8) amounted to 12 fold.

Consider `Cc1c(O)c(O)cc2c1CC=C1C2(C)CCC2(C)C3CC(C)(C(=O)O)CCC3(C)CCC12C` (stereo not shown) [Compound 19, Hydrocelastrol], for which the IC50 on recombinant human S-COMT [3] stood at 12.6 ± 0.73 µM.

Consider `C[C@H]1C(=O)CC[C@@H]2[C@]1(C)CC[C@H]1[C@@]2(C)CC[C@@]2(C)[C@@H]3CC(C)(C)CC[C@]3(C)CC[C@]12C` [Compound 20, Friedelin], for which the IC50 entry on recombinant human S-COMT [3] (setting [9]) was “N.E”.

Regarding `CCN(CC)C(=O)/C(C#N)=C/c1cc(O)c(O)c([N+](=O)[O-])c1` [Entacapone, entacapone, reference compound], the IC50 with LO-2 cells (setting [7]) was > 100 µM.

Consider `Oc1cc(O)c2c(c1)O[C@H](c1ccc(O)c(O)c1)[C@H](O)C2` [Epicatechin, reference compound], for which the IC50 on recombinant human S-COMT [3] (setting [8]) was found to be 9.57 ± 0.55 µM.

Regarding `O=c1c(O)c(-c2ccc(O)c(O)c2)oc2cc(O)cc(O)c12` [Quercetin, reference compound], the IC50 at recombinant human S-COMT [3] was 3.23 ± 0.11 µM.

For `Cc1ccc(C(=O)c2cc(O)c(O)c([N+](=O)[O-])c2)cc1` [Tolcapone, tolcapone, reference compound], in the data set on LO-2 cells (setting [7]), the IC50 lay within 28 to 38 µM. The “reduction in membrane potential” value in data set [2] (10 μM) worked out at 50%.
